Tests used:
HSP90a protein = target: T1, HSP90a protein (Homo sapiens, UniProt P07900); assay: HSP90α-binding fluorescent polarization (FP) assay, BODIPY-labeled RNK04010 probe; details: FP competition with RNK04010 (BODIPY-labeled), 5 nM, 300 min at 25° C.
T1 construct: purchased BPS Bioscience 50298
In short: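 Polarization signal was read after equilibration at 25° C, for 120 min with FITC-geldanamycin or 300 min with the BODIPY-tagged RNK04010 probe, each at 5 nM final. Compounds spanned 20 μM down to 5.2 nM in 2.5-fold dilutions against the HSP90a N-terminal domain.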

[1] = tested on: NCI-H358 human non-small cell lung cancer; assay: NCI-H358 CCK-8 proliferation assay; type: cell-based; details: NCI-H358 cells, 72 hr
Procedure: The following cancer cell lines were employed: BT-474 human breast carcinoma (ATCC, #HTB-20); MIA PaCa-2 human pancreatic carcinoma [2 copies KRAS(G12C)](ATCC, #CRL-1420); NCI-H23 human non-small cell lung cancer [1 copy KRAS(G12C)](ATCC, #CRL-5800); NCI-H358 human non-small cell lung cancer [1 copy KRAS(G12C)](ATCC, #CRL-5807); LU65A human lung carcinoma (Pharmaron, Beijing, China). Cell lines were cultured essentially according to ATCC and Pharmaron recommendations.
Cancer Cell Line Proliferation (CCK-8) Assays
3-fold serial dilutions of each test compound were prepared ranging from 20 μM to 1.02 nM.
% Inhibition=100−(D−B)/(S−B)*100%. • S: Absorbance of cells treated with DMSO • D: Absorbance of compound-treated cells • B: Absorbance of medium with DMSO without cells

[2] = tested on: MIA PaCa-2 human pancreatic carcinoma; assay: MIA PaCa-2 CCK-8 proliferation assay; type: cell-based; details: Homo sapiens, MIA PaCa-2, 72 h, MIA PaCa-2 cells
In short: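 CCK-8 absorbance readout; % inhibition = 100 − (compound − blank)/(DMSO − blank) × 100, blank = medium + DMSO, no cells. Dose range 20 μM down to 1.02 nM, 3-fold steps. KRAS(G12C) copy number: MIA PaCa-2 2; NCI-H358 1; NCI-H23 1.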

KRAS(G12C) = KRAS(G12C) (Homo sapiens, UniProt P01116, G12C); assay: KRAS(G12C)/SOS1 homogeneous time-resolved fluorescence (HTRF) assay; set-up: purchased Cisbio 63ADK000CB16PEG; details: absence of GTP, 4° C. for 3 hr, read-out: KRAS (G12C) binding
KRAS(G12C), sequence (P01116 1-188 isoform P01116-2 G12C): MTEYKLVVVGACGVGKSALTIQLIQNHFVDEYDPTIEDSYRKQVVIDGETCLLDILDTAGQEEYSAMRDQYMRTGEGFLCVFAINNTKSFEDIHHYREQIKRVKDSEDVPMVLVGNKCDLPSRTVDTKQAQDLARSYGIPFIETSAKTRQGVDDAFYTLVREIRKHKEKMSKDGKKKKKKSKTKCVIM
In short: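 HTRF kit measuring compound-induced block of KRAS(G12C)-SOS1 interaction without GTP. Compounds tested as 3-fold serial dilutions down to 1.02 nM, incubated with reaction components 3 h at 4 °C in sealed plates before fluorescence read.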

Structure (SMILES)	IC50 (HSP90a protein) [nM]	EC50 [1] [nM]	EC50 [2] [nM]	IC50 (KRAS(G12C)) [nM]
C=CC(=O)N1CCN(c2nc(NCCC(=O)NCc3ccc(-n4c(O)nnc4-c4cc(CC)c(O)cc4O)cc3F)nc3c2CCN(c2cccc4cccc(Cl)c24)C3)C[C@H]1CC#N [Compound 83, (R)-3-((4-(4-acryloyl-3-(cyanomethyl)piperazin-1-yl)-7-(8-chloronaphthalen-1-yl)-5,6,7,8-tetrahydropyrido[3,4-d]pyrimidin-2-yl)amino)-N-(4-(3-(5-ethyl-2,4-dihydroxyphenyl)-5-hydroxy-4H-1,2,4-triazol-4-yl)-2-fluorobenzyl)propanamide, trifluoroacetic acid]	> 1000	> 1000		
CC(=O)N1CCN(c2nc(NCCC(=O)N3CCC(Cc4ccc(CN(C)Cc5ccc(-n6c(C(=O)NCC(F)(F)F)nnc6-c6cc(C)c(O)cc6O)cc5)cc4)CC3)nc3c2CCN(c2cccc4ccccc24)C3)C[C@H]1CC#N [Compound 122, (R)-4-(4-(((4-((1-(3-((4-(4-acetyl-3-(cyanomethyl)piperazin-1-yl)-7-(naphthalen-1-yl)-5,6,7,8-tetrahydropyrido[3,4-d]pyrimidin-2-yl)amino)propanoyl)piperidin-4-yl)methyl)benzyl)(methyl)amino)methyl)phenyl)-5-(2,4-dihydroxy-5-methylphenyl)-N-(2,2,2-trifluoroethyl)-4H-1,2,4-triazole-3-carboxamide, trifluoroacetic acid]	> 1000	> 1000		
C=CC(=O)N1CCN(c2nc(NCCC(=O)NCC3CCN(C(=O)C4CCN(Cc5ccc(-n6c(O)nnc6-c6cc(CC)c(O)cc6O)cc5)CC4)CC3)nc3c2CCN(c2cccc4cccc(Cl)c24)C3)C[C@H]1CC#N [Compound 104, (R)-3-((4-(4-acryloyl-3-(cyanomethyl)piperazin-1-yl)-7-(8-chloronaphthalen-1-yl)-5,6,7,8-tetrahydropyrido[3,4-d]pyrimidin-2-yl)amino)-N-((1-(1-(4-(3-(5-ethyl-2,4-dihydroxyphenyl)-5-hydroxy-4H-1,2,4-triazol-4-yl)benzyl)piperidine-4-carbonyl)piperidin-4-yl)methyl)propanamide, trifluoroacetic acid]	< 100	> 1000		
CCC(=O)N1CCN(c2nc(NCCC(=O)N3CCN(Cc4ccc(-n5c(O)nnc5-c5cc(C(C)C)c(O)cc5O)cc4)CC3)nc3c2CCN(c2cc(O)cc4ccccc24)C3)CC1 [Compound 35, 1-(4-(4-(3-(2,4-dihydroxy-5-isopropylphenyl)-5-hydroxy-4H-1,2,4-triazol-4-yl)benzyl)piperazin-1-yl)-3-((7-(3-hydroxynaphthalen-1-yl)-4-(4-propionylpiperazin-1-yl)-5,6,7,8-tetrahydropyrido[3,4-d]pyrimidin-2-yl)amino)propan-1-one, trifluoroacetic acid]	100 to 1000	> 1000		
CCCc1cc(-c2nnc(O)n2-c2ccc(CN3CCN(CC4CCN(C(=O)CCNc5nc6c(c(N7CCN(C(=O)CC)CC7)n5)CCN(c5cc(O)cc7ccccc57)C6)CC4)CC3)cc2)c(O)cc1O [Compound 52, 1-(4-((4-(4-(3-(2,4-dihydroxy-5-propylphenyl)-5-hydroxy-4H-1,2,4-triazol-4-yl)benzyl)piperazin-1-yl)methyl)piperidin-1-yl)-3-((7-(3-hydroxynaphthalen-1-yl)-4-(4-propionylpiperazin-1-yl)-5,6,7,8-tetrahydropyrido[3,4-d]pyrimidin-2-yl)amino)propan-1-one]	100 to 1000	> 1000		
C=CC(=O)N1CCN(c2nc(NCCC(=O)N3CCC(CN4CCN(Cc5ccc(-n6c(C(=O)NCC(F)(F)F)nnc6-c6cc(C)c(O)cc6O)cc5)CC4)CC3)nc3c2CCN(c2cccc4ccccc24)C3)C[C@H]1CC#N [Compound 77, (R)-4-(4-((4-((1-(3-((4-(4-acryloyl-3-(cyanomethyl)piperazin-1-yl)-7-(naphthalen-1-yl)-5,6,7,8-tetrahydropyrido[3,4-d]pyrimidin-2-yl)amino)propanoyl)piperidin-4-yl)methyl)piperazin-1-yl)methyl)phenyl)-5-(2,4-dihydroxy-5-methylphenyl)-N-(2,2,2-trifluoroethyl)-4H-1,2,4-triazole-3-carboxamide, trifluoroacetic acid]	100 to 1000	100 to 1000		
C=CC(=O)N1CCN(c2nc(NCCC(=O)NCCc3ccc(-n4c(O)nnc4-c4cc(C(C)C)c(O)cc4O)cc3)nc3c2CCN(c2cccc4ccccc24)C3)C[C@H]1CC#N [Compound 85, (R)-3-((4-(4-acryloyl-3-(cyanomethyl)piperazin-1-yl)-7-(naphthalen-1-yl)-5,6,7,8-tetrahydropyrido[3,4-d]pyrimidin-2-yl)amino)-N-(4-(3-(2,4-dihydroxy-5-isopropylphenyl)-5-hydroxy-4H-1,2,4-triazol-4-yl)phenethyl)propanamide, trifluoroacetic acid]	100 to 1000	> 1000		
C=CC(=O)N1CCN(c2nc(OC[C@@H]3CC[C@H](C(=O)N4CCN(C(=O)C5CCN(Cc6ccc(-n7c(C(=O)NCC(F)(F)F)nnc7-c7cc(C)c(O)cc7O)cc6)CC5)CC4)N3C)nc3c2CCN(c2cccc4cccc(Cl)c24)C3)C[C@@H]1CC#N [Compound 332, 4-{4-[(4-{4-[(2R,5S)-5-({[7-(8-chloronaphthalen-1-yl)-4-[(3S)-3-(cyanomethyl)-4-(prop-2-enoyl)piperazin-1-yl]-5H,6H,8H-pyrido[3,4-d]pyrimidin-2-yl]oxy}methyl)-1-methylpyrrolidine-2-carbonyl]piperazine-1-carbonyl}piperidin-1-yl)methyl]phenyl}-5-(2,4-dihydroxy-5-methylphenyl)-N-(2,2,2-trifluoroethyl)-1,2,4-triazole-3-carboxamide]	< 100		< 100	< 100

The next lines start with the values.

IC50 (HSP90a protein) [nM]	EC50 [1] [nM]	EC50 [2] [nM]	IC50 (KRAS(G12C)) [nM]	Structure (SMILES)
100 to 1000	> 1000			CCC(=O)N1CCN(c2nc(NCCC(=O)NCc3ccc(-n4c(O)nnc4-c4cc(CC)c(O)cc4O)cc3)nc3c2CCN(c2cc(O)cc4ccccc24)C3)CC1 [Compound 37, N-(4-(3-(5-ethyl-2,4-dihydroxyphenyl)-5-hydroxy-4H-1,2,4-triazol-4-yl)benzyl)-3-((7-(3-hydroxynaphthalen-1-yl)-4-(4-propionylpiperazin-1-yl)-5,6,7,8-tetrahydropyrido[3,4-d]pyrimidin-2-yl)amino)propanamide, trifluoroacetic acid]
100 to 1000	> 1000			CC(=O)N1CCN(c2nc(NCCC(=O)NCc3ccc(-n4c(O)nnc4-c4cc(C(C)C)c(O)cc4O)cc3F)nc3c2CCN(c2cc(O)cc4ccccc24)C3)CC1 [Compound 49, 3-((4-(4-acetylpiperazin-1-yl)-7-(3-hydroxynaphthalen-1-yl)-5,6,7,8-tetrahydropyrido[3,4-d]pyrimidin-2-yl)amino)-N-(4-(3-(2,4-dihydroxy-5-isopropylphenyl)-5-hydroxy-4H-1,2,4-triazol-4-yl)-2-fluorobenzyl)propanamide, trifluoroacetic acid]
100 to 1000	> 1000			C=CC(=O)N1CCN(c2nc(NCCC(=O)N3CCN(c4ccc(-n5c(O)nnc5-c5cc(C(C)C)c(O)cc5O)cc4)CC3)nc3c2CCN(c2cc(O)cc4ccccc24)C3)CC1 [Compound 2, 1-(4-(2-((3-(4-(4-(3-(2,4-dihydroxy-5-isopropylphenyl)-5-hydroxy-4H-1,2,4-triazol-4-yl)phenyl)piperazin-1-yl)-3-oxopropyl)amino)-7-(3-hydroxynaphthalen-1-yl)-5,6,7,8-tetrahydropyrido[3,4-d]pyrimidin-4-yl)piperazin-1-yl)prop-2-en-1-one, trifluoroacetic acid]
100 to 1000	> 1000			C=CC(=O)N1CCN(c2nc(NCCC(=O)NCc3ccc(-n4c(O)nnc4-c4cc(CC)c(O)cc4O)cc3)nc3c2CCN(c2cc(O)cc4ccccc24)C3)CC1 [Compound 40, 3-((4-(4-acryloylpiperazin-1-yl)-7-(3-hydroxynaphthalen-1-yl)-5,6,7,8-tetrahydropyrido[3,4-d]pyrimidin-2-yl)amino)-N-(4-(3-(5-ethyl-2,4-dihydroxyphenyl)-5-hydroxy-4H-1,2,4-triazol-4-yl)benzyl)propanamide, trifluoroacetic acid]
100 to 1000	> 1000			CCC(=O)N1CCN(c2nc(NCCC(=O)NCc3ccc(-n4c(O)nnc4-c4cc(C(C)C)c(O)cc4O)cc3C(F)(F)F)nc3c2CCN(c2cc(O)cc4ccccc24)C3)CC1 [Compound 46, N-(4-(3-(2,4-dihydroxy-5-isopropylphenyl)-5-hydroxy-4H-1,2,4-triazol-4-yl)-2-(trifluoromethyl)benzyl)-3-((7-(3-hydroxynaphthalen-1-yl)-4-(4-propionylpiperazin-1-yl)-5,6,7,8-tetrahydropyrido[3,4-d]pyrimidin-2-yl)amino)propenamide]
